Source: ChEMBL document CHEMBL1148219, “Cytotoxic sesquiterpene lactones from Eupatorium lindleyanum” (J Nat Prod, 2004)
Values after ≈ are worked out from the molar mass of the structure shown. Active and inactive are the calls of the source. The calls are words filed in the database; no cut-off is given here.

Assays:
A549 = assay: Cytotoxicity against human A549 cells after 24 hrs; format: functional, cell-based; conditions: for IC50: A549, 24 h
P388 = assay: Cytotoxicity against mouse P388 cells after 24 hrs; format: functional, cell-based; conditions: for IC50: P388, 24 h

Compound | IC50 (A549) [µg/mL] | Activity (A549) | Activity (P388) | IC50 (P388) [µg/mL]
COC(=O)C1=CC[C@@]23CC[C@@H]([C@@](C)(/C=C/C=C(\C)C(=O)O)OC2=O)[C@@]3(OC(C)=O)CC1 [PSEUDOLARIC ACID B] | 0.86 (≈ 1.99 µM) |  |  | 
C=C1C(=O)O[C@@H]2[C@H]3C(C)=C[C@@H](O)[C@H]3[C@@](O)(CO)C[C@@H](OC(=O)/C(C)=C/CO)[C@@H]12 |  | inactive | inactive | 
C=C1C(=O)O[C@@H]2[C@H]3C(C)=C[C@@H](O)[C@H]3[C@@](O)(CCl)C[C@@H](OC(=O)/C(C)=C/C)[C@@H]12 [EUPALINILIDE E] | 0.028 (≈ 0.0706 µM) |  | inactive | 
C=C1C(=O)O[C@@H]2[C@H]3C(C)=C[C@H]4OC[C@@](O)(C[C@@H](OC(=O)/C(C)=C/CO)[C@@H]12)[C@@H]34 [EUPALINILIDE C] | 11 (≈ 29.2 µM) |  |  | 1.2 (≈ 3.19 µM)
C=C1C(=O)O[C@H]2[C@H]1[C@H](OC(=O)/C(C)=C/CO)CC(=C)[C@@H]1C=C[C@@](C)(O)[C@H]21 [EUPALINILIDE B] | 0.75 (≈ 2.08 µM) |  |  | 0.21 (≈ 0.583 µM)
C=C1C(=O)O[C@H]2[C@H]1[C@H](OC(=O)/C(C)=C/CO)C[C@](O)(CO)[C@@H]1[C@H](O)[C@H]3O[C@@]3(C)[C@H]21 |  | inactive | inactive | 
